Assay results: article PMC11546719, “Immune Modulatory Profile of the Pateamines PatA and Des-Methyl Des-Amino PatA” (International Journal of Molecular Sciences, 2024)

Tests used:
Calu-3 cell barrier = test: Transport assay, Calu-3 cell barrier; format: in vitro ADME; conditions: for Permeability / transport rate across Calu-3 cell barrier (in words): 4 and 24 h, PatA, DMDA 5, 50, 100 nM, controls 200 µM
Description: The transport assay was achieved as described previously. Briefly, 1 × 10^5 CaCo-2 or 5 × 10^4 Calu-3 cells in 300 µL medium were seeded on 24-well ThinCerts (pre-coated with FCS for 60 min) and in the lower compartment, 1 mL culture medium per well was added. The Caco-2 cell barrier was generated over 20 days and the Calu-3 barrier was generated over 14 days. DMDA (0 nM, 5 nM, 50 nM, 100 nM), PatA (0 nM, 5 nM, 50 nM, 100 nM), 200 µM famotidine, 200 µM lucifer yellow or 200 µM carbamazepine diluted in medium was added to the apical compartment and incubated for 4 h or 24 h. The medium from the basolateral and apical compartment was collected and stored at −20 °C and analyzed using LC-MS/MS. To obtain the transport rate, the drug amount in the basolateral compartment at 4 h or 24 h was related to the drug amount in the apical compartment (0 h).
The detailed method for the analysis of DMDA, PatA, carbamazepine and famotidine using LC-MS/MS is described in the Supplementary Materials.

[1] = test system: B cells, T cells, M1 MdMs, M2 MdMs; test: Immune cell viability, formazan-based assay; parameters: species or system human; conditions: 48 h
Description: nitrogen, and the residue dissolved in 50 µl methanol. The analysis was performed with an Agilent 1290 Inﬁnity LC system (Agilent, Waldbronn, Germany) coupled to a hybrid triple quadrupole linear ion trap mass spectrometer QTRAP 6500+ (Sciex, Darmstadt, Ger-many) equipped with a Turbo-V-source operating in positive electrospray ionization mode. The chromatographic separation was carried out using an Acquity UPLC BEH C18 column (100x 2.1 mm, 1.7 µm; Waters, Eschborn, Deutschland), maintained at 40 °C. Mobile Phase A was 0.1% formic acid with 20 mM ammonium formate and mobile Phase B was meth-anol with 0.1% formic acid with 20 mM ammonium formate. A gradient program was em-ployed at a flow rate of 400 µl/min, as follows: initial 20% B to 0.5 min, increasing to 90% B from 0.5 to 4.5 min, with a hold time of 1.0 min. Re-equilibration was performed by reducing to 20% B from 5.5 to 5.6 min, and then holding at 20% B until 7.0 min.
For analysis and quantiﬁcation of all compounds, Analyst Software 1.7.1 and Multi-quant Software 3.0.3 (both Sciex, Darmstadt, Germany) were used. The precursor-to-prod-uct ion transitions used for quantiﬁcation were: m/z 237.1 → m/z 194.1 for carbamazepine, […]
482.2 for DMDA, and […]. […]
Supplementary Figure S1. […] Viability was determined by a formazan-based assay. […]

| Compound | Transport rate with Calu-3 cell barrier (Calu-3 cell barrier; 100 nM, 24 h) [%] | Permeability / transport rate across Calu-3 cell barrier (in words) (Calu-3 cell barrier) | Cytotoxicity in immune cell types [1] |
| --- | --- | --- | --- |
| CC(/C=C/C(C)=C/[C@@H]1Cc2nc(cs2)CCCCC(=O)O[C@@H](C)C/C(C)=C/C=C\C(=O)O1)=C\CN(C)C [DMDA, des-methyl des-amino pateamine A] | ~14 | exhibited low permeability | less cytotoxic in comparison with PatA |
| CC(/C=C/C(C)=C/[C@@H]1Cc2nc(cs2)[C@@H](C)C[C@@H](N)CC(=O)O[C@@H](C)C/C(C)=C/C=C\C(=O)O1)=C\CN(C)C [PatA, pateamine A] | – | no permeability was detected | – |
